Experimental data taken from ChEMBL document CHEMBL1139926, “Identification of 6-substituted 4-arylsulfonyl-1,4-diazepane-2,5-diones as a novel scaffold for human chymase inhibitors” (Bioorg Med Chem Lett, 2007).

What was measured:
Chymase = target: T1, Chymase (Homo sapiens, UniProt P23946); experiment: Inhibition of human recombinant chymase
T1 sequence (P23946 whole entry): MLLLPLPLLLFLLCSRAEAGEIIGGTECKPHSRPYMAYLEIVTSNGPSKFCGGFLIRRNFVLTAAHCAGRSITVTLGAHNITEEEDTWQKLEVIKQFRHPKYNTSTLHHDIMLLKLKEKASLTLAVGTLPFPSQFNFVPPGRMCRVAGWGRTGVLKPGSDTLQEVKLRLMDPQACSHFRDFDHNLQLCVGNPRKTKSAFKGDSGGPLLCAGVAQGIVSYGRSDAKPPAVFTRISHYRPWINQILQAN

[1] = Inhibition of bovine pancreatic alpha chymotrypsin; set-up: species or system Bos taurus
Cathepsin G = target: T2, Cathepsin G (Homo sapiens, UniProt P08311); experiment: Inhibition of human neutrophil cathepsin G
T2 sequence (P08311 whole entry): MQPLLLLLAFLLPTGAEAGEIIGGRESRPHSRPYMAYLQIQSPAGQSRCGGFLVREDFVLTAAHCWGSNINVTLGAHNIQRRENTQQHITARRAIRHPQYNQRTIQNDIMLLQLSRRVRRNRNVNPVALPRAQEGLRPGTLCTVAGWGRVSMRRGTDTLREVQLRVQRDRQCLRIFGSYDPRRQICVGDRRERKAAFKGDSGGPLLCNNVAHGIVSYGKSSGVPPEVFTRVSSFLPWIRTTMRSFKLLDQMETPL

[2] = Inhibition of bovine pancreatic trypsin; set-up: species or system Bos taurus
Neutrophil elastase = target: T3, Neutrophil elastase (Homo sapiens, UniProt P08246); experiment: Inhibition of human neutrophil elastase
T3 sequence (P08246 whole entry): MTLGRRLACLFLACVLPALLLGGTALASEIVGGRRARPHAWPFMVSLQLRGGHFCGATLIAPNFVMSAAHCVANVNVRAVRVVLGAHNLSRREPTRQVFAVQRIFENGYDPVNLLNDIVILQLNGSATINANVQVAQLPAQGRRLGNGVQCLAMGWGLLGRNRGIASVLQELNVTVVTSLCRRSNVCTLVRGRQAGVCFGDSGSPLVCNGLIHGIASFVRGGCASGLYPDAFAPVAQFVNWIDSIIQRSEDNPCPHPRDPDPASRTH

Row | IC50 (Chymase) | SMILES | also measured
1 | > 10 µM | O=C1CN(S(=O)(=O)c2ccc(Cl)cc2)C(=O)C(Cc2ccncc2)CN1 (racemic) | 
2 | > 10 µM | O=C1CN(S(=O)(=O)c2ccc(Cl)cc2)C(=O)C(Cc2cccnc2)CN1 (racemic) | 
3 |  | COc1ccc(Cl)cc1CC1CNC(=O)CN(S(=O)(=O)c2ccc(Cl)cc2)C1=O (racemic) | IC50 [1]: 0.3 µM; IC50 (Cathepsin G): 2.9 µM; IC50 [2]: > 10 µM; IC50 (Neutrophil elastase): > 10 µM
4 | > 10 µM | O=C1CN(S(=O)(=O)c2ccc(Cl)cc2)C(=O)C(Cc2ccc3ccccc3c2)CN1 (racemic) | 
5 | 0.043 µM | CC(C)C[C@H](NC(=O)[C@@H](NC(=O)N[C@@H](Cc1ccccc1)C(=O)O)C1CCN=C(N)N1)C(=O)N[C@H](C=O)Cc1ccccc1 (some centres undefined) [CHYMOSTATIN] | 
6 | > 10 µM | O=C1CN(S(=O)(=O)c2ccc(Cl)cc2)C(=O)C(CC2CCCCC2)CN1 (racemic) | 
